# Data as given in PMC8645997, “Population Pharmacokinetics of Polymyxin B in Obese Patients for Resistant Gram-Negative Infections” (Frontiers in Pharmacology, 2021).
# Where a SMILES comes first, the peptide text is derived from it. Bridges are numbered along the chain shown (N, C = ends). [ ]: non-standard residue; d: D form. The star is where a group is joined. X1 = CC[C@H](C)CCCCC(=O)*; Dab = NCC[C@H](N)C(=O)O
# Tests used:
# [1] = daily dose ≥250 mg; 151 patients; 95% CI 1.15–16.25, p = 0.03; ref Nelson et al., 2015; cited from earlier work
# Experimental: From a toxicology perspective, the use of TBW-based dosing in obese patients can lead to polymyxin B overexposure and risk of acute kidney injury (AKI). In a retrospective study of 151 patients, Nelson et al. discovered that a daily dose ≥250 mg was an independent predictor of nephrotoxicity (OR 4.32, 95% CI 1.15–16.25, p = 0.03) in multivariate analysis ([Nelson et al., 2015]). […] These studies raised an important point abo ...
# [2] = Population PK modeling of polymyxin B plasma concentrations in obese patients (two-compartment model, Phoenix NLME); format: in vivo, human
# Experimental: This retrospective observational study was performed in the First Affiliated Hospital of Zhengzhou University between April 2018 and March 2021. The inclusion criteria for subjects were as follows: 1) patients ≥18 years old; 2) body mass index (BMI) ≥ 30; 3) patients had received intravenous polymyxin B (sulfate; polymyxin B for injection, Shanghai First Biochemical Pharmaceutical Co., Ltd.) for MDR Gram-negative infections; 4) blood sampling at steady state for therapeutic drug monitoring (TDM) was available. Subjects were excluded if 1) patients with continuous renal replacement therapy (CRRT) or extracorporeal membrane oxygenation (ECMO); 2) concentrations were below the lower limit of quantitation. The study protocols were approved by Zhengzhou University Medical Research and Ethics Committee (2021-KY-0441).
# Polymyxin B was given to all patients empirically with a 100–200 mg loading dose and a 50–100 mg maintenance dose twice daily. The routine infusion time was at least 1 hour. Polymyxin B treatment, including dosage, infusion time, and treatment course, was determined by their medical teams. Sampling procedures included the following two categories.
# From April 2018 to May 2019, 4-7 blood samples (mainly C0h, C1h, C1.5h, C2h, C4h, C6h, and C8h) were collected on day 4 to calculate the area under the concentration across 12 h at steady state (AUCss,12h). From June 2019 to March 2021, according to our previous study, a 2-point model using the limited sampling strategy was a practical approach to estimating polymyxin B AUCss,12h. Therefore, two blood samples (C0h and C2h) were collected. The infusion time was 1 hour ([Wang et al., 2020c]).
# Blood samples were immediately centrifuged at 3,500 × g for 10 min. The supernatant was collected and then stored at −80°C until analysis. Polymyxin B concentrations (i.e., the polymyxin B1 concentration plus the polymyxin B2 concentration) were analyzed using a validated high-performance liquid chromatography-mass spectrometry method published by our laboratory ([Wang et al., 2020b]). As previously reported, the assay was linear over 0.2–10.0 μg/ml for polymyxin B1 and 0.05–2.5 μg/ml for polymyxin B2. The intra- and inter-batch assay precision (RSD) ranged from 0 to 13.93% for quality control samples, and their corresponding accuracy (% relative error) ranged from −11.56 to 11.13% ([Wang et al., 2020b]). Since polymyxin B1 and B2 had similar structures, molecular weight, pharmacological activities, and pharmacokinetic characteristics, the plasma concentration of polymyxin B was summed to derive the total polymyxin B1 and B2 concentrations ([Tam et al., 2011]; [Manchandani et al., 2016]).
# Population PK modeling process was performed with the Phoenix® NLME software (v7.0, Pharsight, Mountain View, CA, USA). In brief, different PK models (one-, two-, or three-compartment models) were compared using the first-order conditional estimation-extended least-squares (FOCE ELS) method. The inter-individual variability (IIV) of PK parameters was assumed by additive, proportional, or mixed (additive plus proportional) models. The coefficient of variation (CV), the distribution of residuals in diagnostic plots, and the likelihood ratio test (-2 loglikelihood; -2LL) were used to evaluate the model. Following the basic structural modeling step, a stepwise process was used to consider several covariates, including age, TBW, BMI, IBW, ABW, sex, SOFA score, CrCL, adjusted CrCL, ideal CrCL, serum creatinine, and GFR. A drop >6.63 (p = 0.01) of objective function value (OFV; -2LL) for forward addition and an increase of OFV >10.83 (p = 0.001) for backward elimination were the inclusion criteria for covariates. After covariate selection, based on the scatter plot and ΔOFV (a drop of OFV >6.63), the relevant correlation between random effects was also explored.
# For model evaluation, the goodness-of-fit (GOF) plots were used to evaluate the reliability of the final model. […]
# [3] = intermediate to high protein binding; ref Sandri et al., 2013; Abodakpi et al., 2015; Avedissian et al., 2019; cited from earlier work
# Text: Obesity can cause related pathophysiological changes that could theoretically alter the PK characteristic of drugs, such as increased Vd, altered hepatic metabolism, renal CL, and protein binding. An understanding of how the Vd of a drug changes in obesity is critical because this parameter determines loading-dose selection ([Hanley et al., 2010]). Vd is affected by physicochemical property (lipophilicity or hydrophilicity), plasma protein binding rate, and tissue blood flow ([Al-Dorzi et al., 2014]; [Polso et al., 2014]). Hydrophilic drugs typically have a low Vd, poor tissue penetration, les ...
# [4] = cited from earlier work
# Text: As a weight-based dosing antibiotic with a narrow therapeutic window, polymyxin B regimen in obese patients is particularly concerning. The present study developed a two-compartment model to describe the population PK profile of polymyxin B in obese patients. […] In terms of V and V2 estimates, the values varied widely between studies ([Avedissian et al., 2019]). Compared with the PK parameters reported by our group and Sandri et al, the typical V value (11.24 L, Table 2) was higher than thos ... || Obesity can cause related pathophysiological changes that could theoretically alter the PK characteristic of drugs, such as increased Vd, altered hepatic metabolism, renal CL, and protein binding. An understanding of how the Vd of a drug changes in obesity is critical because this parameter determines loading-dose selection ([Hanley et al., 2010]). Vd is affected by physicochemical property (lipophilicity or hydrophilicity), plasma protein binding rate, and tissue blood flow ([Al-Dorzi et al., 2014]; [Polso et al., 2014]). Hydrophilic drugs typically have a low Vd, poor tissue penetration, les ...
# [5] = obese patients, n = 26, iv, steady state
smiles,measurement,setting,value
CC[C@H](C)CCCCC(=O)N[C@@H](CCN)C(=O)N[C@H](C(=O)N[C@@H](CCN)C(=O)N[C@H]1CCNC(=O)[C@H]([C@@H](C)O)NC(=O)[C@H](CCN)NC(=O)[C@H](CCN)NC(=O)[C@H](CC(C)C)NC(=O)[C@@H](Cc2ccccc2)NC(=O)[C@H](CCN)NC1=O)[C@@H](C)O [polymyxin B] (X1-[Dab]T[Dab][Dab][Dab][dF]L[Dab][Dab]T; lactam 4-C),"OR of nephrotoxicity (independent predictor, multivariate analysis)",[1],4.32
same,"tvCL, bootstrap median","[2]; bootstrap, 1,000 samples",2.73
same,"tvQ, bootstrap median","[2]; bootstrap, 1,000 samples",7.71
same,"tvV2, bootstrap median","[2]; bootstrap, 1,000 samples",40.46
same,"tvV, bootstrap median","[2]; bootstrap, 1,000 samples",11.46
same,"tvV, typical value of central compartment distribution volume (V), final model estimate","[2]; obese patients (BMI >=30), n = 26, 142 plasma concentrations, iv, steady state",11.24 L
same,"tvCL, central compartment clearance, final model estimate",[2]; [5],2.86 L/h
same,"tvQ, inter-compartmental clearance, final model estimate",[2]; [5],7.36
same,"tvV2, peripheral compartment distribution volume, final model estimate",[2]; [5],39.70 L
same,protein binding,[3],58–90%
same,Vd,"[4]; low to intermediate Vd, ref Sandri et al., 2013, Abodakpi et al., 2015, Avedissian et al., 2019",6.3 to 47.2 L
same,"typical CL value, previous reports","[4]; previous reports, ref Avedissian et al., 2019",1.87 to 2.63 L/h
same,"V2 value, reported previously","[4]; ref Sandri et al., 2013, Wang et al., 2020c, 2021",10.57 to 11.97 L
same,"typical V value, reported previously","[4]; reported by our group and Sandri et al, ref Sandri et al., 2013, Wang et al., 2020c, Wang et al., 2021",6.22 to 6.98 L
